# Reference: patent US20250339569A1, “CARBONIC ANHYDRASE IX LIGANDS” (priority 2021, published 2025)
# Like-named read-outs stand apart in the source and are kept apart here.
# Columns and labels:
# mouse CAIX = target: T1, mouse CAIX (Mus musculus, UniProt Q8VHB5); experiment: Radioligand saturation binding on CHO-msCAIX
# T1 construct: host or cells: CHO-VGT / CHO cells
# Method: After attainment of equilibrium, the cells were harvested, and the bound fraction of the compounds was measured. The resulting saturation binding data were analyzed using Graph Pad Prism 8.3.
# CHO cells transfected with human, dog, and mouse CAIX (CHO-huCA9 T04J-1/20 K1, CHO-dogCA9 T05J-9/20 K4, CHO-murCA9 T05J-3/20 K4) were obtained from InSCREENex (Germany).
# A molar excess of 3BP-3565 was used as a blocking peptide to assess non-specific binding in autoradiographic studies. 3BP-3565 binds with a similar affinity to CAIX and blocks binding sites of test compounds. For the blocking solution, a 10 mM stock solution of 3BP-3565 was prepared by dissolution in DMSO.
# CHO cells were maintained in Ham's medium supplemented with 10% fetal bovine serum, 2 mM L-glutamine, 100 U/mL Penicillin and 0.1 mg/mL streptomycin under standard cell culture conditions. The cells were grown in uncoated cell culture flasks (150 cm^2, Biochrom) to subconfluence and then split 1:2-1:3. Approximately 24 hours before the assay, cells were detached by incubation with Accutase and carefully tapping the flasks. Detached cells were resuspended in medium and collected by centrifugation (300 g, 5 min, RT). Cell pellets were resuspended in cell culture medium and counted using a particle counter (CASY Model TT, Scharfe Systems, Germany). Cell concentrations were adjusted to 3×10^5 mL^−1, and 1.000 μL per well of the suspension were dispensed into poly-D-lysine-coated flat-clear-bottom 24 well plates.
# Compound radiolabeling was performed as follows. […] Then, 25 mg/mL methionine in 1 M sodium acetate buffer pH 5 was added at a final concentration of 0.1 M sodium acetate. Subsequently, the mixture was heated to 80° C. for 25 min, followed by cooling for 5 minutes. Finally, 20 μL of 200 mg/mL ascorbic acid solution, 2.5 μL of 5 mg/mL DTPA and 2.5 μL of 5% TWEEN-20 per 100 μL reaction mixture were added, resulting in the concentrated study solution. For quality control, an aliquot of the labeling solution was diluted 1:40 with 0.1% TWEEN-20 in 0.1 M sodium acetate buffer pH 5. Five microliters of the diluted labeling solution were injected onto a Poroshell SB-C18 2.1×50 mm, 2.7 μm column. HPLC analysis was performed as follows: Gradient A: H2O, 0.1% TFA, Gradient B: Acetonitrile (MeCN), gradient from 5% B to 70% B within 15 min, flow rate of 0.5 mL/min; detector: NaI, DAD 215 nm. The peak eluting with the dead volume represents free radionuclide, the peak eluting with the ligand-specific retention time as determined with a non-labeled sample represents the radiolabeled compound.
# The radioligand saturation binding on CHO-msCAIX was determined as follows. […] Their associated radioactivity was counted using a gamma counter and normalized to the measured protein concentration of each well. […]
# [1] = Pharmacokinetic characterization in healthy dogs; type: in vivo, beagle dogs; details: dog; for AUC(0-inf) / Cmax / clearance / half-life / Vd / CL renal: male, beagle, iv; for AUC(0-inf) / Cmax / clearance / half-life / Vd: plasma; for half-life: read-out: terminal half-life (T1/2) (converted); for Vd: read-out: volume of distribution; for CL renal: urine and plasma, read-out: estimated renal clearance
# Method: The pharmacokinetics of DPI-4452 after a single intravenous (i.v.) dose was investigated in healthy dogs. […] Plasma and urine samples collected after dosing were analyzed using a LC-HRMS (liquid chromatography coupled with high-resolution mass spectrometry) assay method. Concentration values were used for pharmacokinetic calculations.
# DPI 4452 was formulated in 0.1 M HEPES pH 7.0 at the final concentrations of 0.05 and 0.4 mg/mL for dosing at 0.1 and 0.8 mg/kg, respectively. Male beagle dogs (3 animals per dose level; overall 8.9 to 12.4 kg body weight) were administered intravenously (bolus) in a 2 mL/kg dosing volume. Blood samples were collected in K2EDTA tubes at 5 min, 15 min, 30 min, 1 h, 2 h, 4 h, 6 h, 24 h, and urine was collected over 24 hours post dose. The blood samples were kept on wet ice until plasma separation by centrifugation within 60 min after sampling. The plasma samples were transferred into plastic tubes, frozen and stored at −80° C. until analysis.
# Plasma and urine samples were analyzed by […] after solid phase extraction, using DPI-4501 as internal standard. Chromatographic separation was run on a Waters Acquity HSS T3 C18 2.1×50 mm, 1.8 μm column. Detection was achieved on a Sciex API6600 TOF mass spectrometer. The lower limit of quantification was 2.00 ng/mL in urine and plasma.
# The NCA pharmacokinetic analysis of plasma concentration data was conducted using Phoenix WinNonlin 6.3 software. Nominal doses were used for all animals. The terminal phase half-life (T1/2) was calculated by least-squares regression analysis of the terminal linear part of the log concentration-time curve. The area under the plasma concentration-time curve (AUC) was determined with the linear trapezoidal rule for increasing values and log trapezoidal rule for decreasing values up to the last measurable concentration.
# T1 sequence (Q8VHB5 32-437): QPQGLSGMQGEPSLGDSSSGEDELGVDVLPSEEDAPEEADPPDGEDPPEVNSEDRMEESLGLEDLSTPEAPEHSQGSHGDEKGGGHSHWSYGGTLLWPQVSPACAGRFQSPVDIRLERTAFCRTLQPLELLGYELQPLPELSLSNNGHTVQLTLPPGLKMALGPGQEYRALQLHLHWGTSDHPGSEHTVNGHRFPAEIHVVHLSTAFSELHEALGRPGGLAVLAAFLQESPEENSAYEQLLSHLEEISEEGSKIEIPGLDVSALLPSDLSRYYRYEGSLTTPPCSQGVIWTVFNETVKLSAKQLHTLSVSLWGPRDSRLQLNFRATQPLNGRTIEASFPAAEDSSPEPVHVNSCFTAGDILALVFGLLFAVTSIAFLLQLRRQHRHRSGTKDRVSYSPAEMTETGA
SMILES,Kd (mouse CAIX),"Mean pKd ± SD (mouse CAIX; CHO-msCAIX, single experiment)",time up to which plasma concentration was quantifiable ([1]; i.v. 0.1 mg/kg),time up to which plasma concentration was quantifiable ([1]; i.v. 0.8 mg/kg),AUC(0-inf) ([1]; i.v. 0.1 mg/kg),Cmax ([1]; i.v. 0.1 mg/kg),clearance ([1]; i.v. 0.1 mg/kg),half-life ([1]; i.v. 0.1 mg/kg),Vd ([1]; i.v. 0.1 mg/kg),AUC(0-inf) ([1]; i.v. 0.8 mg/kg),Cmax ([1]; i.v. 0.8 mg/kg),clearance ([1]; i.v. 0.8 mg/kg),half-life ([1]; i.v. 0.8 mg/kg),Vd ([1]; i.v. 0.8 mg/kg),CL renal ([1]; i.v. 0.1 mg/kg),CL renal ([1]; i.v. 0.8 mg/kg)
"CC(C)C[C@@H]1NC(=O)[C@H](Cc2cccc(NC(=O)CCCS(N)(=O)=O)c2)NC(=O)[C@H](CC(=O)O)NC(=O)[C@H]2CCCN2C(=O)[C@H](CCC(=O)O)NC(=O)[C@@H](NC(=O)[C@H](CCC(N)=O)NC(=O)CN2CCN(C(=O)CN3CCN(CC(=O)O)CCN(CC(=O)O)CCN(CC(=O)O)CC3)CC2)CSCc2cccc(c2)CSC[C@@H](C(N)=O)NC(=O)[C@H](CO)NC(=O)[C@H](Cc2c[nH]c3ccccc23)NC(=O)[C@H]([C@@H](C)O)NC1=O [[^111In]In-DPI-4452, metal not drawn]",63.1 nM,7.2,–,–,–,–,–,–,–,–,–,–,–,–,–,–
"CC(C)C[C@@H]1NC(=O)[C@H](Cc2cccc(NC(=O)CCCS(N)(=O)=O)c2)NC(=O)[C@H](CC(=O)O)NC(=O)[C@H]2CCCN2C(=O)[C@H](CCC(=O)O)NC(=O)[C@@H](NC(=O)[C@H](CCC(N)=O)NC(=O)CN2CCN(C(=O)CN3CCN(CC(=O)O)CCN(CC(=O)O)CCN(CC(=O)O)CC3)CC2)CSCc2cccc(c2)CSC[C@@H](C(N)=O)NC(=O)[C@H](CO)NC(=O)[C@H](Cc2c[nH]c3ccccc23)NC(=O)[C@H]([C@@H](C)O)NC1=O [DPI-4452, DOTA-PPAc-Gln-[Cys(3MeBn)-Glu-pro-Asp-Af3(Cpsu)-Leu-Thr-Trp-Ser-Cys]-NH2]",–,–,up to 2 h,≤ 4 h,133 ng·h/mL,377 ng/mL,12.7 mL/min/kg,22.8 min,0.26 L/kg,1760 ng·h/mL,4430 ng/mL,7.6 mL/min/kg,28.8 min,0.19 L/kg,2.06 mL/h/kg,0.684 mL/h/kg
